Reference: the supplement of paper PMC10290057
Structures can show the parent of a compound that is named as a salt.

What was measured:
[1] = tested on: HCT116; test: AC50 cell viability (CellTiter-Glo); higher = less potent; conditions: 48 h
[2] = tested on: HCT116; test: efficacy (fitted maximal change in viability relative to DMSO control); higher = less cytotoxic (negative = loss of viability); conditions: 48 h
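Throughout, for AC50 cell viability (CellTiter-Glo): HCT116 colorectal carcinoma cells screened at five concentrations per compound, luminescent viability scaled between DMSO wells and empty wells on each plate, curves fitted per compound.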
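Throughout, for efficacy (fitted maximal change in viability relative to DMSO control): Luminescence-based viability readout, five doses per compound, normalized against on-plate DMSO and empty-well controls, followed by dose-response curve fitting for every drug.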

Structure (SMILES) | AC50 cell viability [1] [µM] | efficacy [2] [%]
OC[C@H]1O[C@H](C[C@@H]1O)N2\C=C(\I)C(=O)NC2=O [Idoxuridine] | 16.6 | -38.3
OC1=CC=C(C=C1)C/2=C/C3=C(OC2)C=C(O)C=C3 [Idronoxil] | 3.72 | -73.9
Cc1ccc(NC(=O)c2ccc(CN3CCN(C)CC3)cc2)cc1Nc1nccc(-c2cccnc2)n1 [Imatinib] | 16.6 | -85
NC(=O)C/1=C(O)/[C@]2(O)[C@@H](C[C@@H]\3CC4=C(C(=CC=C4)O)\C(=C3C2=O)O)CC1=O [Incyclinide] | 16.6 | -69.4
O=C(Nc1ccncc1)C(=O)c1cn(Cc2ccc(Cl)cc2)c2ccccc12 [Indibulin] | 0.295 | -70.9
COC1=C(OC)C=C2C(=C1)C(=O)N(CCC[N]3C=CN=C3)\C4=C2\C(=O)C5=CC6=C(OCO6)C=C45 [Indimitecan hydrochloride (LMP-776)] | 5.9 | -63.4
N[S+](=O)([O-])c1ccc([S+](=O)([O-])Nc2cccc3c(Cl)c[nH]c23)cc1 [Indisulam (E7070)] | 1.86 | -57.8
COC1=C(OC)C=C2C(=C1)C(=O)N(CCCN3CCOCC3)\C4=C2\C(=O)C5=C4C=C6OCOC6=C5 [Indotecan hydrochloride (LMP-400)] | 2.09 | -88.1
CC(C)NC[C@@H](C(=O)N1CCN(c2ncnc3c2[C@H](C)C[C@H]3O)CC1)c1ccc(Cl)cc1 [Ipatasertib] | 13.2 | -96.8
CCC1=C2C=C(OC(=O)N3CCC(CC3)N4CCCCC4)C=CC2=NC\5=C1CN6C(=O)\C7=C(/C=C56)[C@@](O)(CC)C(=O)OC7 [Irinotecan] | 1.18 | -80
Clc1ccc(C(Cn2ccnc2)OCc2c(Cl)cccc2Cl)c(Cl)c1 (stereo unspecified) [Isoconazole nitrate] | 23.5 | -77.2
CC(C)[C@@H](N(CCCN)C(=O)C1=CC=C(C)C=C1)C/2=N/C3=CC(=CC=C3C(=O)N2CC4=CC=CC=C4)Cl [Ispinesib] | 0.0295 | -94.4
CC(C)(C)C1=CC(=C(NC(=O)C/2=C/NC3=C(C=CC=C3)C2=O)C=C1O)C(C)(C)C [Ivacaftor] | 18.6 | -108
C/C(=C\c1csc(C)n1)[C@@H]1C[C@@H]2O[C@]2(C)CCC[C@H](C)[C@H](O)[C@@H](C)C(=O)C(C)(C)[C@@H](O)CC(=O)N1 [Ixabepilone] | 0.0833 | -58.5
CC(C)C[C@H](NC(=O)CNC(=O)c1cc(Cl)ccc1Cl)B1OC(=O)CC(CC(=O)O)(C(=O)O)O1 (stereo partly specified) [Ixazomib citrate] | 0.148 | -93.4
CC(C)C[C@H](NC(=O)CNC(=O)c1cc(Cl)ccc1Cl)B(O)O [Ixazomib] | 0.0833 | -89.3
N#CC(c1ccnc(NCCc2cccnc2)n1)c1nc2ccccc2s1 (stereo unspecified) [JNK Inhibitor V] | 8.33 | -92.2
CC1=C(C)C2=C(S1)[N]3C(=NN=C3[C@H](CC(=O)OC(C)(C)C)/N=C2/C4=CC=C(Cl)C=C4)C [JQ1] | 0.525 | -81.9
CCc1ccc(OCc2ccccc2C(=O)Nc2ccc3nc(C)cc(N)c3c2)cc1 [JTC-801] | 3.32 | -94.1
CC(C)NC(=O)COc1cccc(-c2nc(Nc3ccc4[nH]ncc4c3)c3ccccc3n2)c1 [KD-025] | 8.33 | -66.8
CC(C)CNc1ccnc(NCc2csc(-c3ccccc3)n2)n1 [KHS-101] | 11.8 | -129
COc1cc2nccc(Oc3ccc(NC(=O)Nc4ccc(F)cc4F)c(F)c3)c2cc1OC [KI-8751] | 2.09 | -47.4
COc1ccc([S+](=O)([O-])N(CCO)c2ccccc2CN(C)C/C=C/c2ccc(Cl)cc2)cc1 [KN-93] | 14.8 | -93.9
